Reference: patent US10654832B2, “3-(benzoimidazol-2-YL)-indazole inhibitors of the Wnt signaling pathway and therapeutic uses thereof” (Samumed, LLC, priority 2013, dated 2020)

Tested on: Wnt activity (wnt-responsive SP5 promoter luciferase reporter in SW480 cells)
Experiment: Wnt activity reporter assay (SP5 promoter-firefly luciferase in SW480 cells)
Type: cell-based
Conditions: Homo sapiens; SW480 colon cancer cells with SP5 promoter luciferase reporter; 24 h after compound addition; half-log dilutions, three micromolar top concentration; normalized to DMSO; read-out: Wnt inhibition
Source text: The above synthesized compounds were screened using the assay procedure for Wnt activity described below.
Reporter cell lines were generated by stably transducing cells of cancer cell lines (e.g., colon cancer) with a lentiviral construct that include a wnt-responsive promoter driving expression of the firefly luciferase gene.
Lentiviral constructs were made in which the SP5 promoter, a promoter having eight TCF/LEF binding sites derived from the SP5 promoter, was linked upstream of the firefly luciferase gene. The lentiviral constructs included a hygromycin resistance gene as a selectable marker. The SP5 promoter construct was used to transduce SW480 cells, a colon cancer cell line having a mutated APC gene that generates a truncated APC protein, leading to de-regulated accumulation of β-catenin.
Cultured SW480 cells bearing a reporter construct were distributed at approximately 10,000 cells per well into 384 well multiwell plates. Compounds were then added to the wells in half-log dilutions using a three micromolar top concentration. A series of control wells for each cell type received only buffer and compound solvent. Twenty-four hours after the addition of compound, reporter activity for luciferases was assayed, for example, by addition of the BrightGlo luminescence reagent (Promega) and the Victor3 plate reader (Perkin Elmer). Readings were normalized to DMSO only treated cells, and normalized activities were then used for the IC50 calculations.

| SMILES | IC50 [nM] |
| --- | --- |
| CCC(=O)Nc1cncc(-c2ccc3[nH]nc(-c4nc5c(-c6cccc(F)c6)cccc5[nH]4)c3c2)c1 [Compound 1, N-(5-(3-(4-(3-Fluorophenyl)-1H-benzo[d]imidazol-2-yl)-1H-indazol-5-yl)pyridin-3-yl)propionamide] | 2 |
| Fc1cccc(-c2cccc3[nH]c(-c4n[nH]c5ccc(-c6cccnc6)cc45)nc23)c1 [Compound 4, 3-(4-(3-Fluorophenyl)-1H-benzo[d]imidazol-2-yl)-5-(pyridin-3-yl)-1H-indazole] | 4 |
| Cc1ccncc1-c1ccc2[nH]nc(-c3nc4c(-c5cccc(F)c5)cccc4[nH]3)c2c1 [Compound 5, 3-(4-(3-Fluorophenyl)-1H-benzo[d]imidazol-2-yl)-5-(4-methylpyridin-3-yl)-1H-indazole] | 34 |
| CN(C)c1cncc(-c2ccc3[nH]nc(-c4nc5c(-c6cccc(F)c6)cccc5[nH]4)c3c2)c1 [Compound 7, 5-(3-(4-(3-Fluorophenyl)-1H-benzo[d]imidazol-2-yl)-1H-indazol-5-yl)-N,N-dimethylpyridin-3-amine] | 8 |
| CC(C)C(=O)Nc1cncc(-c2ccc3[nH]nc(-c4nc5c(-c6cccc(F)c6)cccc5[nH]4)c3c2)c1 [Compound 9, N-(5-(3-(4-(3-Fluorophenyl)-1H-benzo[d]imidazol-2-yl)-1H-indazol-5-yl)pyridin-3-yl)isobutyramide] | 250 |
| O=C(Cc1ccccc1)Nc1cncc(-c2ccc3[nH]nc(-c4nc5c(-c6cccc(F)c6)cccc5[nH]4)c3c2)c1 [Compound 10, N-(5-(3-(4-(3-Fluorophenyl)-1H-benzo[d]imidazol-2-yl)-1H-indazol-5-yl)pyridin-3-yl)-2-phenylacetamide] | 69 |
| CN(C)Cc1cncc(-c2ccc3[nH]nc(-c4nc5c(-c6cccc(F)c6)cccc5[nH]4)c3c2)c1 [Compound 13, 1-(5-(3-(4-(3-Fluorophenyl)-1H-benzo[d]imidazol-2-yl)-1H-indazol-5-yl)pyridin-3-yl)-N,N-dimethylmethanamine] | 11 |
| CC(C)(C)CC(=O)Nc1cncc(-c2ccc3[nH]nc(-c4nc5c(-c6cccc(F)c6)cccc5[nH]4)c3c2)c1 [Compound 16, N-(5-(3-(4-(3-Fluorophenyl)-1H-benzo[d]imidazol-2-yl)-1H-indazol-5-yl)pyridin-3-yl)-3,3-dimethylbutanamide] | 31 |
| CCCCC(=O)Nc1cncc(-c2ccc3[nH]nc(-c4nc5c(-c6cccc(F)c6)cccc5[nH]4)c3c2)c1 [Compound 18, N-(5-(3-(4-(3-Fluorophenyl)-1H-benzo[d]imidazol-2-yl)-1H-indazol-5-yl)pyridin-3-yl)pentanamide] | 30 |
| O=C(Nc1cncc(-c2ccc3[nH]nc(-c4nc5c(-c6cccc(F)c6)cccc5[nH]4)c3c2)c1)C1CC1 [Compound 19, N-(5-(3-(4-(3-Fluorophenyl)-1H-benzo[d]imidazol-2-yl)-1H-indazol-5-yl)pyridin-3-yl)cyclopropanecarboxamide] | 5 |
| O=C(Nc1cncc(-c2ccc3[nH]nc(-c4nc5c(-c6cccc(F)c6)cccc5[nH]4)c3c2)c1)C1CCCC1 [Compound 21, N-(5-(3-(4-(3-Fluorophenyl)-1H-benzo[d]imidazol-2-yl)-1H-indazol-5-yl)pyridin-3-yl)cyclopentanecarboxamide] | 50 |
| O=C(Nc1cncc(-c2ccc3[nH]nc(-c4nc5c(-c6cccc(F)c6)cccc5[nH]4)c3c2)c1)C1CCCCC1 [Compound 22, N-(5-(3-(4-(3-Fluorophenyl)-1H-benzo[d]imidazol-2-yl)-1H-indazol-5-yl)pyridin-3-yl)cyclohexanecarboxamide] | 180 |
| CC(C)CC(=O)Nc1cncc(-c2ccc3[nH]nc(-c4nc5c(-c6ccc(F)cc6)cccc5[nH]4)c3c2)c1 [Compound 26, N-(5-(3-(4-(4-Fluorophenyl)-1H-benzo[d]imidazol-2-yl)-1H-indazol-5-yl)pyridin-3-yl)-3-methylbutanamide] | 179 |
| Cc1ccncc1-c1ccc2[nH]nc(-c3nc4c(-c5ccc(F)cc5)cccc4[nH]3)c2c1 [Compound 29, 3-(4-(4-Fluorophenyl)-1H-benzo[d]imidazol-2-yl)-5-(4-methylpyridin-3-yl)-1H-indazole] | 100 |
| CC(C)(C)C(=O)Nc1cncc(-c2ccc3[nH]nc(-c4nc5c(-c6ccc(F)cc6)cccc5[nH]4)c3c2)c1 [Compound 32, N-(5-(3-(4-(4-Fluorophenyl)-1H-benzo[d]imidazol-2-yl)-1H-indazol-5-yl)pyridin-3-yl)pivalamide] | 35 |
| CC(C)C(=O)Nc1cncc(-c2ccc3[nH]nc(-c4nc5c(-c6ccc(F)cc6)cccc5[nH]4)c3c2)c1 [Compound 33, N-(5-(3-(4-(4-Fluorophenyl)-1H-benzo[d]imidazol-2-yl)-1H-indazol-5-yl)pyridin-3-yl)isobutyramide] | 34 |
| O=C(Nc1cncc(-c2ccc3[nH]nc(-c4nc5c(-c6ccc(F)cc6)cccc5[nH]4)c3c2)c1)c1ccccc1 [Compound 35, N-(5-(3-(4-(4-Fluorophenyl)-1H-benzo[d]imidazol-2-yl)-1H-indazol-5-yl)pyridin-3-yl)benzamide] | 161 |
| Fc1ccc(-c2cccc3[nH]c(-c4n[nH]c5ccc(-c6cncc(CN7CCCC7)c6)cc45)nc23)cc1 [Compound 38, 3-(4-(4-Fluorophenyl)-1H-benzo[d]imidazol-2-yl)-5-(5-(pyrrolidin-1-ylmethyl)pyridin-3-yl)-1H-indazole] | 153 |
| CCCC(=O)Nc1cncc(-c2ccc3[nH]nc(-c4nc5c(-c6ccc(F)cc6)cccc5[nH]4)c3c2)c1 [Compound 41, N-(5-(3-(4-(4-Fluorophenyl)-1H-benzo[d]imidazol-2-yl)-1H-indazol-5-yl)pyridin-3-yl)butyramide] | 15 |
| CCCCC(=O)Nc1cncc(-c2ccc3[nH]nc(-c4nc5c(-c6ccc(F)cc6)cccc5[nH]4)c3c2)c1 [Compound 42, N-(5-(3-(4-(4-Fluorophenyl)-1H-benzo[d]imidazol-2-yl)-1H-indazol-5-yl)pyridin-3-yl)pentanamide] | 33 |
| O=C(Nc1cncc(-c2ccc3[nH]nc(-c4nc5c(-c6ccc(F)cc6)cccc5[nH]4)c3c2)c1)C1CC1 [Compound 43, N-(5-(3-(4-(4-Fluorophenyl)-1H-benzo[d]imidazol-2-yl)-1H-indazol-5-yl)pyridin-3-yl)cyclopropanecarboxamide] | 43 |
| O=C(Nc1cncc(-c2ccc3[nH]nc(-c4nc5c(-c6ccc(F)cc6)cccc5[nH]4)c3c2)c1)C1CCC1 [Compound 44, N-(5-(3-(4-(4-Fluorophenyl)-1H-benzo[d]imidazol-2-yl)-1H-indazol-5-yl)pyridin-3-yl)cyclobutanecarboxamide] | 140 |
| O=C(Nc1cncc(-c2ccc3[nH]nc(-c4nc5c(-c6ccc(F)cc6)cccc5[nH]4)c3c2)c1)C1CCCC1 [Compound 45, N-(5-(3-(4-(4-Fluorophenyl)-1H-benzo[d]imidazol-2-yl)-1H-indazol-5-yl)pyridin-3-yl)cyclopentanecarboxamide] | 110 |
| O=C(Nc1cncc(-c2ccc3[nH]nc(-c4nc5c(-c6ccc(F)cc6)cccc5[nH]4)c3c2)c1)C1CCCCC1 [Compound 46, N-(5-(3-(4-(4-Fluorophenyl)-1H-benzo[d]imidazol-2-yl)-1H-indazol-5-yl)pyridin-3-yl)cyclohexanecarboxamide] | 225 |
